Assay [1] has as its target T1, SARS-CoV-2 PLpro (nsp3 1564–1878) (Severe acute respiratory syndrome coronavirus 2, UniProt P0DTD1). Nature of the assay: biochemical. Further details: FRET-quenched peptide (Pro3) cleavage by PLpro, 10 min pre-incubation, slope over 20 min, normalised to no-compound control. The settings on record: high concentration screen, read-out: % of control remaining.
Assay [2] has as its target T1, SARS-CoV-2 PLpro (nsp3 1564–1878). Nature of the assay: biochemical. On the set-up: FRET-quenched peptide (Pro3) cleavage by PLpro, 10 min pre-incubation, slope over 20 min, normalised to no-compound control. Conditions: low concentration screen, read-out: % of control remaining.

Structures can show the parent of a compound that is named as a salt. Where two headings read alike, the source gives them in different places.

As for `CC[C@H](C)C[C@H](C)CCCCCCCCC(=O)N[C@H]1C[C@@H](O)[C@@H](NCCN)NC(=O)[C@@H]2[C@@H](O)CCN2C(=O)[C@H]([C@H](O)CCN)NC(=O)[C@H]([C@H](O)[C@@H](O)c2ccc(O)cc2)NC(=O)[C@@H]2C[C@@H](O)CN2C(=O)[C@H]([C@@H](C)O)NC1=O` [Caspofungin Acetate], the remaining activity at 3.75 µM in assay [1] (Well no.=5317) amounted to 95.7%. Besides, the remaining activity at 1.25 µM in assay [2] (Well no.=5317) amounted to 99.9%.
In the case of `O[C@H]1[C@H](O)[C@@H](O)CN2CC[C@H](O)[C@H]12` [Castanospermine], the remaining activity at 3.75 µM in assay [1] (Well no.=3135) came out at 102%. Further, the remaining activity at 1.25 µM in assay [2] (Well no.=3135) was determined as 102%.
In the case of `OC[C@H]1O[C@@H](O[C@@H]2OC=C[C@H]3[C@H](O)[C@@H]4O[C@]4(CO)[C@@H]23)[C@H](O)[C@@H](O)[C@@H]1O` [Catalpol], the remaining activity at 3.75 µM in assay [1] (Well no.=3274) amounted to 103%. Further, in assay [2] (Well no.=3274), the remaining activity at 1.25 µM was 102%.
Take `CCC1=C[C@@H]2CN3CCc4c([nH]c5ccccc45)[C@@](C(=O)OC)(C2)[C@@H]13` [Catharanthine]: the remaining activity at 3.75 µM in assay [1] (Well no.=3595) stood at 107%. Also, the remaining activity at 1.25 µM in assay [2] (Well no.=3595) amounted to 104%.
As to `CCN1/C(=C/C(C)=O)Sc2ccc(OC)cc21` [Cdc2-Like Kinase Inhibitor, TG003], in assay [1] (Well no.=2410), the remaining activity at 3.75 µM was 109%. Besides, in assay [2] (Well no.=2410), the remaining activity at 1.25 µM stood at 106%.
As for `O=C1N=C(NCc2cccs2)S/C1=C\c1ccc2ncccc2c1` [Cdk1 Inhibitor IV, RO-3306], in assay [1] (Well no.=2347), the remaining activity at 3.75 µM was 104%. Besides, the remaining activity at 1.25 µM in assay [2] (Well no.=2347) turned out to be 103%.
`CCn1cnc2c(Nc3cccc(Cl)c3)nc(N[C@@H]3CCCC[C@@H]3N)nc21` [Cdk1 Inhibitor, CGP74514A]: the remaining activity at 3.75 µM in assay [1] (Well no.=2366) is 96.1%. The remaining activity at 1.25 µM in assay [2] (Well no.=2366) is 96.7%.
Turning to `O=C1Nc2ccccc2/C1=C\c1c(Cl)[nH]c2ccccc12` [Cdk1 Inhibitor], in assay [1] (Well no.=2364), the remaining activity at 3.75 µM is 104%. The remaining activity at 1.25 µM in assay [2] (Well no.=2364) came to 101%.
For `Nc1nc(Nc2ccc(S(N)(=O)=O)cc2)nn1C(=S)Nc1c(F)cccc1F` [Cdk1/2 Inhibitor III], the remaining activity at 3.75 µM in assay [1] (Well no.=2368) was found to be 102%. For the same molecule, the remaining activity at 1.25 µM in assay [2] (Well no.=2368) turned out to be 99.3%.
Consider `Nc1[nH]nc2nc3ccccc3nc12` [Cdk1/5 Inhibitor], for which the remaining activity at 3.75 µM in assay [1] (Well no.=2370) is 98.7%. In addition, the remaining activity at 1.25 µM in assay [2] (Well no.=2370) is 96.8%.
On to `COc1ccc(CNc2nc(N(CCO)CCO)nc3c2ncn3C(C)C)cc1` [Cdk2 Inhibitor III], for which the remaining activity at 3.75 µM in assay [1] (Well no.=2416) was determined as 110%. In assay [2] (Well no.=2416), the remaining activity at 1.25 µM worked out at 107%.
In the case of `NS(=O)(=O)c1ccc(N=Nc2c(O)[nH]c3ccc(Br)cc23)cc1` [Cdk2 Inhibitor II], the remaining activity at 3.75 µM in assay [1] (Well no.=2383) was determined as 103%. Moreover, the remaining activity at 1.25 µM in assay [2] (Well no.=2383) turned out to be 102%.
`CCN(CC)C(=O)c1ccc(Nc2nc(OCC3CCCCC3)c3[nH]cnc3n2)cc1` [Cdk2 Inhibitor IV, NU6140]: in assay [1] (Well no.=2418), the remaining activity at 3.75 µM was found to be 94.5%. Moreover, the remaining activity at 1.25 µM in assay [2] (Well no.=2418) turned out to be 100%.
On to `COc1ccc(OC)c2c(=S)c3ccccc3[nH]c12` [Cdk4 Inhibitor II, NSC 625987], for which, in assay [1] (Well no.=2406), the remaining activity at 3.75 µM was 108%. In assay [2] (Well no.=2406), the remaining activity at 1.25 µM was 102%.
As for `O=C1NC(=O)c2c1c1c3ccccc3[nH]c1c1[nH]c3cc(Br)ccc3c21` [Cdk4 Inhibitor], in assay [1] (Well no.=2404), the remaining activity at 3.75 µM was determined as 99.9%. Moreover, the remaining activity at 1.25 µM in assay [2] (Well no.=2404) is 99.9%.
As for `Nc1n[nH]c(N)c1N=Nc1ccc(O)cc1` [Cdk9 Inhibitor II], the remaining activity at 3.75 µM in assay [1] (Well no.=2395) worked out at 103%. In addition, in assay [2] (Well no.=2395), the remaining activity at 1.25 µM is 104%.
Regarding `CC(C)n1cnc2c(NCc3ccccc3O)nc(NCCCO)nc21` [Cdk Inhibitor, p35], in assay [1] (Well no.=2387), the remaining activity at 3.75 µM was found to be 97%. Besides, in assay [2] (Well no.=2387), the remaining activity at 1.25 µM stood at 94.5%.
With `CC(C)c1nn(-c2c(Cl)cccc2Cl)c2nc(Cc3ccc(OCCO)cc3)[nH]c(=O)c12` [Cdk/Crk Inhibitor], the remaining activity at 3.75 µM in assay [1] (Well no.=2420) came to 105%. In addition, in assay [2] (Well no.=2420), the remaining activity at 1.25 µM came to 105%.
As for `COc1cc2c(Oc3ccc4[nH]c(C)cc4c3F)ncnc2cc1OCCCN1CCCC1` [Cediranib (AZD2171)], the remaining activity at 3.75 µM in assay [1] (Well no.=4999) was found to be 103%. For the same molecule, the remaining activity at 1.25 µM in assay [2] (Well no.=4999) came to 101%.
Take `N[C@@H](C(=O)N[C@@H]1C(=O)N2C(C(=O)O)=C(Cl)CS[C@H]12)c1ccccc1` [Cefaclor]: the remaining activity at 3.75 µM in assay [1] (Well no.=88) worked out at 101%. For the same molecule, the remaining activity at 1.25 µM in assay [2] (Well no.=88) was determined as 99.7%.
For `Cc1nnc(SCC2=C(C(=O)O)N3C(=O)[C@@H](NC(=O)Cn4cnnn4)[C@H]3SC2)s1` [Cefazolin sodium], the remaining activity at 3.75 µM in assay [1] (Well no.=178) is 99.4%. Besides, the remaining activity at 1.25 µM in assay [2] (Well no.=178) came to 101%.
For `CO/N=C(\C(=O)N[C@@H]1C(=O)N2C(C(=O)[O-])=C(C[N+]3(C)CCCC3)CS[C@H]12)c1csc(N)n1` [Cefepime], the remaining activity at 3.75 µM in assay [1] (Well no.=1842) was determined as 88.2%. Besides, in assay [2] (Well no.=1842), the remaining activity at 1.25 µM came to 90%.
As to `CO[C@@]1(NC(=O)CSCC#N)C(=O)N2C(C(=O)O)=C(CSc3nnnn3C)CS[C@@H]21` [Cefmetazole sodium], the remaining activity at 3.75 µM in assay [1] (Well no.=134) turned out to be 99.6%. Further, the remaining activity at 1.25 µM in assay [2] (Well no.=134) worked out at 101%.
`CO/N=C(\C(=O)N[C@@H]1C(=O)N2C(C(=O)O)=C(Cn3ccc(=N)n3CCO)CS[C@H]12)c1csc(N)n1` [Cefoselis sulfate]: the remaining activity at 3.75 µM in assay [1] (Well no.=5199) is 100%. Moreover, the remaining activity at 1.25 µM in assay [2] (Well no.=5199) stood at 96.6%.
With `CO/N=C(\C(=O)N[C@@H]1C(=O)N2C(C(=O)O)=C(COC(C)=O)CS[C@H]12)c1csc(N)n1` [Cefotaxime sodium], the remaining activity at 3.75 µM in assay [1] (Well no.=186) is 94.1%. Besides, the remaining activity at 1.25 µM in assay [2] (Well no.=186) is 93.2%.
Turning to `NC(=O)c1cc[n+](CC2=C(C(=O)O)N3C(=O)[C@@H](NC(=O)[C@@H](c4ccccc4)S(=O)(=O)[O-])[C@H]3SC2)cc1` [Cefsulodin sodium salt hydrate], in assay [1] (Well no.=92), the remaining activity at 3.75 µM was found to be 99.3%. In addition, the remaining activity at 1.25 µM in assay [2] (Well no.=92) came to 98.3%.
Take `CC(C)(O/N=C(\C(=O)N[C@@H]1C(=O)N2C(C(=O)[O-])=C(C[n+]3ccccc3)CS[C@H]12)c1csc(N)n1)C(=O)O` [Ceftazidime]: the remaining activity at 3.75 µM in assay [1] (Well no.=2221) amounted to 98%. In addition, in assay [2] (Well no.=2221), the remaining activity at 1.25 µM was 98.3%.
For `CO/N=C(\C(=O)N[C@@H]1C(=O)N2C(C(=O)O)=C(CSC(=O)c3ccco3)CS[C@H]12)c1csc(N)n1` [Ceftiofur HCl], the remaining activity at 3.75 µM in assay [1] (Well no.=5288) was 91.7%. Besides, the remaining activity at 1.25 µM in assay [2] (Well no.=5288) was determined as 90.5%.
`CO/N=C(\C(=O)N[C@@H]1C(=O)N2C(C(=O)O)=C(CSc3nc(=O)c(O)nn3C)CS[C@H]12)c1csc(N)n1` [Ceftriaxone sodium]: in assay [1] (Well no.=132), the remaining activity at 3.75 µM was 105%. For the same molecule, the remaining activity at 1.25 µM in assay [2] (Well no.=132) is 105%.
`CC1=C(O)C(=O)C=C2C1=CC=C1[C@@]2(C)CC[C@@]2(C)[C@@H]3C[C@](C)(C(=O)O)CC[C@]3(C)CC[C@]12C` [Celastrol]: the remaining activity at 3.75 µM in assay [1] (Well no.=3430) came out at 94.6%. The remaining activity at 1.25 µM in assay [2] (Well no.=3430) worked out at 95.7%.
On to `Cc1ccc(-c2cc(C(F)(F)F)nn2-c2ccc(S(N)(=O)=O)cc2)cc1` [Celecoxib], for which, in assay [1] (Well no.=1818), the remaining activity at 3.75 µM was determined as 88.2%. Further, the remaining activity at 1.25 µM in assay [2] (Well no.=1818) was 88.6%.

The values above are taken from publication PMC8286840, “Identifying SARS-CoV-2 antiviral compounds by screening for small molecule inhibitors of Nsp3 papain-like protease” (Biochemical Journal, 2021).
